What all share (test): DTP human tumour cell line panel, 48 h
Experiment [1] relates to BT-549 breast.
For experiment [2], the system named is SF-268 CNS.
For experiment [3], the system named is CAKI-1 renal.
The subject of experiment [4] is MOLT-4 leukemia.
Experiment [5] concerns HT29 colon.
The test system of experiment [6] is SW-620 colon.
For experiment [7], the system named is DU-145 prostate.
The test system of experiment [8] is OVCAR-8 ovarian.
Experiment [9] has as its system NCI-H226 lung.
The test system of experiment [10] is SF-539 CNS.

Structures are written as SMILES.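 Grown in 96-well plates, cells were treated for 48 hours with each compound at five concentrations. Insufficient inhibition: endpoint recorded as highest concentration tested. GI50 is the concentration that inhibits growth by half. TGI denotes the concentration required for complete inhibition of growth.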

We go through nine compounds from PubChem BioAssay (NCI).

For orientation: GI50 means the concentration at which growth is held to half of that of the control. The TGI is the concentration giving total growth inhibition.

Take `COc1ccc(C2=C(c3ccccc3)C(=O)N3CCCC3C2)cc1` (configuration not stated): the GI50 in experiment [1] is 32.5 µM; in experiment [2], 26 µM; in experiment [3] it was 8.05 µM; in [5], 233 nM; in [6] it was 1.24 µM; in experiment [7] it was 4.13 µM. For the same compound, the GI50 in experiment [8] is 9.42 µM; in experiment [10] it was 3.11 µM. Moreover, the TGI in [1], in [2], in [3], in experiment [4], in experiment [5] and in experiment [6] was greater than 100 µM each time. Besides, the concentration for total growth inhibition (TGI) in [7] was greater than 100 µM; in experiment [8], greater than 100 µM; in experiment [9], greater than 100 µM; in [10] it was 98.2 µM.

As to `CC(C)(C)N1CC1CNC(=O)C(=O)NCC1CN1C(C)(C)C` (configuration not stated), the TGI in experiment [1] is greater than 92.6 µM; in experiment [2], 15.4 µM; in [3], greater than 96.1 µM; in experiment [4] it was 31.3 µM; in [5], 19.1 µM; in experiment [6] it was greater than 11 µM. Also, the TGI in experiment [7] was greater than 26.9 µM; in [8], 14.8 µM; in [9], 18.7 µM; in experiment [10] it was 13.7 µM.

For the compound `Cn1cc(-c2csc(-c3ccccc3)n2)c2cccnc21`, the GI50 in experiment [1] was 17.1 µM; in [2], 16.8 µM; in experiment [3], 7.1 µM; in experiment [4], 10.3 µM; in experiment [5], 14200 nM; in experiment [6] it was 14.9 µM. Besides, the GI50 in [7] is 15 µM; in [8], 20.3 µM; in experiment [9] it was 16.6 µM; in [10] it was 14.2 µM. The TGI was 45.8 µM in experiment [1]; 43 µM in [2]; 31.7 µM in experiment [3]; 29 µM in [4]; 27.2 µM in experiment [5]; 30.1 µM in [6]. Also, the TGI in [7] worked out at 29.3 µM; in experiment [8], 52.4 µM; in [9] it was 42.4 µM; in [10], 28.3 µM.

For `O=C(Cc1cc(O)ccc1O)NO`, the GI50 in experiment [1] was 85.7 µM; in [2], greater than 100 µM; in [3] it was 26.9 µM; in experiment [4], 19.7 µM; in [6], 25.1 µM; in experiment [7] it was greater than 100 µM. The GI50 in experiment [8] is greater than 100 µM; in experiment [9], 70 µM; in experiment [10], greater than 100 µM. In addition, the TGI in [1] is greater than 100 µM; in [2], greater than 100 µM; in [3], 81.9 µM; in experiment [4] it was 41 µM; in [6], 54.1 µM; in [7], greater than 100 µM. Also, the TGI in [8], in [9] and in [10] was greater than 100 µM each time.

Take `CCN1CCN(Cc2ccc(NC(=O)Nc3nc(-c4cc(OC)c(OC)c(OC)c4)cs3)cc2C(F)(F)F)CC1`: the GI50 in experiment [1] was 1.91 µM; in experiment [2], 1.87 µM; in [3], 1.91 µM; in experiment [4] it was 1.29 µM; in experiment [5] it was 390 nM; in experiment [6] it was 1.62 µM. For the same compound, the figures for the GI50 in experiment [7], in experiment [9] and in experiment [10] were 2.07 µM, 1.68 µM and 1.69 µM, respectively. The TGI in [1] was found to be 4.58 µM; in experiment [2], 5.76 µM; in experiment [3], 4.9 µM; in experiment [4] it was 3.69 µM; in experiment [5] it was 1.48 µM; in experiment [6] it was 3.31 µM. For the same compound, the TGI is 4.92 µM in [7], 3.82 µM in [9] and 3.12 µM in experiment [10].

For `O=C1NC(c2ccc3ccccc3c2)Nc2ccccc21` (configuration not stated), the concentration for total growth inhibition (TGI) in experiment [1] was 37.1 µM; in [2], greater than 100 µM; in [3], greater than 100 µM; in [5] it was greater than 100 µM; in experiment [6] it was greater than 100 µM; in experiment [7], greater than 100 µM. In addition, the TGI in experiment [8], in experiment [9] and in experiment [10] was greater than 100 µM throughout.

Regarding `Cc1ccc(NC(=S)NNC(=S)Nc2ccc(C)cc2)cc1`, the GI50 is greater than 100 µM in [1]; 6.05 µM in [2]; 3.66 µM in experiment [3]; 3610 nM in experiment [5]; 3.81 µM in experiment [6]; 6.89 µM in experiment [7]. The GI50 in experiment [8] is 7.95 µM; in [9], greater than 100 µM; in experiment [10] it was 5.46 µM. In addition, the TGI in experiment [1] was greater than 100 µM; in experiment [2], greater than 100 µM; in [3], greater than 100 µM; in [5] it was greater than 100 µM; in [6] it was greater than 100 µM; in experiment [7] it was 59.2 µM. In addition, the TGI in experiment [8], in experiment [9] and in experiment [10] was greater than 100 µM in each case.

For `N#CC1=C(N)N=C(N2CCOCC2)C(C#N)C12Nc1ccccc1S2` (configuration not stated), the GI50 was 23.3 µM in experiment [1]; 8.05 µM in experiment [2]; 12.6 µM in experiment [3]; 23.4 µM in experiment [4]; 23.2 µM in experiment [6]; 19.2 µM in experiment [7]. Besides, the values for the GI50 in experiment [8], in experiment [9] and in experiment [10] were 4.23 µM, 27.8 µM and 18.9 µM, respectively. Besides, the TGI is 60.6 µM in experiment [1]; 27.5 µM in experiment [2]; 44.4 µM in experiment [3]; greater than 100 µM in experiment [4]; greater than 100 µM in experiment [6]; 56.5 µM in [7]. In addition, the TGI in experiment [8] is 59.5 µM; in experiment [9], greater than 100 µM; in [10], 35.5 µM.

Take `COC(=O)C1C(C(=O)O)C2(c3ccccc3)C(=O)C1(c1ccccc1)C(c1ccc(OC)cc1)=C2c1ccc(OC)cc1` (configuration not stated): the GI50 in [1] was 15.8 µM; in [2] it was 25 µM; in experiment [3], 20.9 µM; in experiment [4] it was 18 µM; in [6] it was 23.2 µM; in [7] it was 19.9 µM. Also, the GI50 in experiment [8] was 15.9 µM; in experiment [9], 21.9 µM; in experiment [10] it was 17.7 µM. In addition, the TGI is 33.6 µM in experiment [1]; 82.2 µM in experiment [2]; 43.6 µM in experiment [3]; 43.4 µM in [4]; 46.6 µM in experiment [6]; 49.8 µM in experiment [7]. The TGI in experiment [8] came to 30.8 µM; in [9], 55.6 µM; in [10], 34 µM.
